# Measurements published in patent US20230117034A1, “PYRAZOLOTRIAZINES” (Bayer Aktiengesellschaft, priority 2019, published 2023).
# Columns and labels:
# [1] = molecular target: CDK12/CycK (Homo sapiens, UniProt Q9NYV4); assay: CDK12/CycK high ATP kinase assay (TR-FRET, 2 mM ATP); assay type: biochemical; settings: 2 mM ATP (high ATP); median; read-out: CDK12/CyclinK, 2 mM ATP (high ATP), IC50-[mol/l] (median)
# Summary of the method: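 His-tagged human CDK12/CycK (~0.75 nM) pre-incubated 15 min with compound, then 60 min at 22 °C with 2 mM ATP and 1 µM biotinylated peptide (HEPES pH 7.5, 20 mM MgCl2). EDTA stop; phospho-Ser62 antibody/Eu anti-rabbit and streptavidin-XL665 TR-FRET, 665/620 nm ratio normalised to give IC50.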
# [2] = molecular target: T1, CDK2/CycE (Homo sapiens, UniProt P24941); assay: CDK2/CycE kinase assay (TR-FRET, 2 mM ATP); assay type: biochemical; settings: 2 mM ATP (high ATP); median; read-out: CDK2/CyclinE, 2 mM ATP (high ATP), IC50 (median)
# T1 construct: purchased ProQinase GmbH (Freiburg, Germany); host or cells: insect cells (Sf9)
# Summary of the method: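 GST-tagged human CDK2 and CycE from Sf9 cells, about 10 ng/ml, pre-incubated 15 min at 22 °C with compound in Tris/HCl pH 8.0 buffer. Reaction with 2 mM ATP and 0.75 µM biotinylated peptide for 25 min at 22 °C. Phospho-RB antibody TR-FRET (665/620 nm ratio) read after 1 h; data normalised to no-inhibitor and no-enzyme controls.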
# Chain of CDK12/CycK (Q9NYV4 with tags, fused parts or gaps): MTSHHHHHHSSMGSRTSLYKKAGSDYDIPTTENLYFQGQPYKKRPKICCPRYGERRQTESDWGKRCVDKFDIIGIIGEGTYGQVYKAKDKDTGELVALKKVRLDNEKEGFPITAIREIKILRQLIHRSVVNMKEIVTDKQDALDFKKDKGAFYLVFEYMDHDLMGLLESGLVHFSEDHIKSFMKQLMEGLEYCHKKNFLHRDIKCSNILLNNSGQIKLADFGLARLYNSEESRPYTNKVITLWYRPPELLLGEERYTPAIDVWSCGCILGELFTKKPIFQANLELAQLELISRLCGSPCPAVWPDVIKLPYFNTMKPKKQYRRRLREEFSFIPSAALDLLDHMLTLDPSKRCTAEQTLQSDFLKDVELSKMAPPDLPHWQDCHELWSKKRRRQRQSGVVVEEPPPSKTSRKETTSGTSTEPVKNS
# Chain of CDK12/CycK (O75909 1-300 partner limits assumed): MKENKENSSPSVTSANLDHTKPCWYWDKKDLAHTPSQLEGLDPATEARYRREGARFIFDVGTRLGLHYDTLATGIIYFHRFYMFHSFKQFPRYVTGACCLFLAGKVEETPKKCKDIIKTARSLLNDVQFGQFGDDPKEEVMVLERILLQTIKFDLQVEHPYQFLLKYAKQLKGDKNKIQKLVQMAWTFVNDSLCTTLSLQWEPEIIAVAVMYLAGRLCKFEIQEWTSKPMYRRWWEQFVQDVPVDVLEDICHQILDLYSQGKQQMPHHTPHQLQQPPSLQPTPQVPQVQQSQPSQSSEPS
Structure (SMILES),IC50 [1] [µM],IC50 [2] [µM]
"OCCNc1nc(NCc2nc3ccccc3[nH]2)n2ncc(Br)c2n1 [Example 228, 2-[(4-{[(1H-benzimidazol-2-yl)methyl]amino}-8-bromopyrazolo[1,5-a][1,3,5]triazin-2-yl)amino]ethan-1-ol]",> 20,9.21
"OC1(C(F)(F)F)CCN(c2nc(NCc3nc4ccccc4[nH]3)n3ncc(Br)c3n2)C1 (centres unmarked) [Example 200, 1-[4-(1H-benzimidazol-2-ylmethylamino)-8-bromo-pyrazolo[1,5-a][1,3,5]triazin-2-yl]-3-(trifluoromethyl)pyrrolidin-3-ol]",4.33,4.63
"Cc1ccc2[nH]c(CNc3nc(N4C[C@@H]5CCCN[C@@H]5C4)nc4c(Br)cnn34)nc2c1 [Example 203, 8-bromo-N-[(5-methyl-1H-benzimidazol-2-yl)methyl]-2-[(4aS, 7aS)-octahydro-6H-pyrrolo[3,4-b]pyridin-6-yl]pyrazolo[1,5-a][1,3,5]triazin-4-amine]",8.8,9.3
"CC1(C)CN(c2nc(NCc3nc4ccccc4[nH]3)n3ncc(Br)c3n2)CCN1 [Example 216, N-[(1H-benzimidazol-2-yl)methyl]-8-bromo-2-(3,3-dimethylpiperazin-1-yl)pyrazolo[1,5-a][1,3,5]triazin-4-amine]",> 4.59,15.2
"Cc1ccc2[nH]c(CNc3nc(N4C[C@H]5C[C@@H]4CO5)nc4c(Br)cnn34)nc2c1 [Example 192, 8-bromo-N-[(5-methyl-1H-benzimidazol-2-yl)methyl]-2-[(1R,4R)-2-oxa-5-azabicyclo[2.2.1]heptan-5-yl]pyrazolo[1,5-a][1,3,5]triazin-4-amine]",8.5,4.17
"OC[C@@H]1CCCCN1c1nc(NCc2nc3c(F)c(F)ccc3[nH]2)n2ncc(C3CC3)c2n1 [Example 184, [(2S)-1-(8-cyclopropyl-4-{[(4,5-difluoro-1H-benzimidazol-2-yl)methyl]amino}pyrazolo[1,5-a][1,3,5]triazin-2-yl)piperidin-2-yl]methanol]",0.0132,2.72
"C[C@H]1CN(c2nc(NCc3nc4ccccc4[nH]3)n3ncc(Br)c3n2)CCN1 [Example 169, N-[(1H-benzimidazol-2-yl)methyl]-8-bromo-2-[(3S)-3-methylpiperazin-1-yl]pyrazolo[1,5-a][1,3,5]triazin-4-amine]",13.7,13.3
"CN(C)[C@@H]1CCN(c2nc(NCc3nc4ccccc4[nH]3)n3ncc(Br)c3n2)C1 [Example 178, N-[(1H-benzimidazol-2-yl)methyl]-8-bromo-2-[(3R)-3-(dimethylamino)pyrrolidin-1-yl]pyrazolo[1,5-a][1,3,5]triazin-4-amine]",> 20,> 20
"Fc1cccc2[nH]c(CNc3nc(N4C[C@@H]5CCCN[C@@H]5C4)nc4c(C5CC5)cnn34)nc12 [Example 187, 8-cyclopropyl-N-[(4-fluoro-1H-benzimidazol-2-yl)methyl]-2-[(4aS,7aS)-octahydro-6H-pyrrolo[3,4-b]pyridin-6-yl]pyrazolo[1,5-a][1,3,5]triazin-4-amine]",6.5,> 20
"CN(CC(C)(C)O)c1nc(NCc2nc3ccccc3[nH]2)n2ncc(Br)c2n1 [Example 238, 1-[(4-{[(1H-benzimidazol-2-yl)methyl]amino}-8-bromopyrazolo[1,5-a][1,3,5]triazin-2-yl)(methyl)amino]-2-methylpropan-2-ol]",1.79,1.86
"CN1CC2CCC1CN2c1nc(NCc2nc3ccccc3[nH]2)n2ncc(Br)c2n1 (centres unmarked) [Example 221, N-(1H-benzimidazol-2-ylmethyl)-8-bromo-2-(5-methyl-2,5-diazabicyclo[2.2.2]octan-2-yl)pyrazolo[1,5-a][1,3,5]triazin-4-amine]",7.98,5.01
"Cc1ccc2[nH]c(CNc3nc(N4C[C@@H](C)N[C@@H](C)C4)nc4c(Br)cnn34)nc2c1 [Example 209, 8-bromo-2-[(3R,5S)-3,5-dimethylpiperazin-1-yl]-N-[(5-methyl-1H-benzimidazol-2-yl)methyl]pyrazolo[1,5-a][1,3,5]triazin-4-amine]",6.8,> 20
"COc1ccc2[nH]c(CNc3nc(N4C[C@@H](C)N[C@@H](C)C4)nc4c(Br)cnn34)nc2c1 [Example 205, 8-bromo-2-[(3R,5S)-3,5-dimethylpiperazin-1-yl]-N-[(5-methoxy-1 H-benzimidazol-2-yl)methyl]pyrazolo[1,5-a][1,3,5]triazin-4-amine]",7.97,> 20
"CO[C@@H]1CCN(c2nc(NCc3nc4ccccc4[nH]3)n3ncc(Br)c3n2)C1 [Example 223, N-[(1H-benzimidazol-2-yl)methyl]-8-bromo-2-[(3R)-3-methoxypyrrolidin-1-yl]pyrazolo[1,5-a][1,3,5]triazin-4-amine]",> 16.5,14.4
"Fc1ccc2[nH]c(CNc3nc(N4CCOCC4)nc4c(C5CC5)cnn34)nc2c1F [Example 172, 8-cyclopropyl-N-[(4,5-difluoro-1H-benzimidazol-2-yl)methyl]-2-(morpholin-4-yl)pyrazolo[1,5-a][1,3,5]triazin-4-amine]",0.641,> 20
"CC1(O)CCN(c2nc(NCc3nc4ccccc4[nH]3)n3ncc(Br)c3n2)C1 (centres unmarked) [Example 225, 1-[4-(1H-benzimidazol-2-ylmethylamino)-8-bromo-pyrazolo[1,5-a][1,3,5]triazin-2-yl]-3-methyl-pyrrolidin-3-ol]",10.3,5.39
"CC(C)c1cnn2c(NCc3nc4ccccc4[nH]3)nc(Nc3ccncc3)nc12 [Example 14, N^4-[(1H-benzimidazol-2-yl)methyl]-8-(propan-2-yl)-N^2-(pyridin-4-yl)pyrazolo[1,5-a][1,3,5]triazine-2,4-diamine]",> 16.4,> 20
"OC1CCN(c2nc(NCc3nc4ccccc4[nH]3)n3ncc(Br)c3n2)CC1 [Example 17, 1-(4-{[(1H-benzimidazol-2-yl)methyl]amino}-8-bromopyrazolo[1,5-a][1,3,5]triazin-2-yl)piperidin-4-ol]",5.72,2.89
"OC[C@@H]1CCCCN1c1nc(NCc2nc3c(F)cccc3[nH]2)n2ncc(C3CC3)c2n1 [Example 189, [(2S)-1-(8-cyclopropyl-4-{[(4-fluoro-1H-benzimidazol-2-yl)methyl]amino}pyrazolo[1,5-a][1,3,5]triazin-2-yl)piperidin-2-yl]methanol]",0.0109,0.761
"Clc1cnn2c(NCc3nc4ccccc4[nH]3)nc(N3CCOCC3)nc12 [Example 15, N-[(1H-benzimidazol-2-yl)methyl]-8-chloro-2-(morpholin-4-yl)pyrazolo[1,5-a][1,3,5]triazin-4-amine]",6.02,6.52
"CCNc1nc(NCc2nc3ccccc3[nH]2)n2ncc(Br)c2n1 [Example 227, N4-(1H-benzimidazol-2-ylmethyl)-8-bromo-N2-ethyl-pyrazolo[1,5-a][1,3,5]triazine-2,4-diamine]",9.51,1.87
"COCCNc1nc(NCc2nc3ccccc3[nH]2)n2ncc(Br)c2n1 [Example 230, N4-(1H-benzimidazol-2-ylmethyl)-8-bromo-N2-(2-methoxyethyl)pyrazolo[1,5-a][1,3,5]triazine-2,4-diamine]",> 20,10.1
"O=C1CN(c2nc(NCc3nc4ccccc4[nH]3)n3ncc(Br)c3n2)CCN1 [Example 167, 4-(4-{[(1H-benzimidazol-2-yl)methyl]amino}-8-bromopyrazolo[1,5-a][1,3,5]triazin-2-yl)piperazin-2-one]",7.12,15.9
"O[C@H]1CCN(c2nc(NCc3nc4ccccc4[nH]3)n3ncc(Br)c3n2)C1 [Example 224, (3S)-1-(4-{[(1H-benzimidazol-2-yl)methyl]amino}-8-bromopyrazolo[1,5-a][1,3,5]triazin-2-yl)pyrrolidin-3-ol]",15.6,7.75
"CN1C[C@@H]2C[C@H]1CN2c1nc(NCc2nc3ccccc3[nH]2)n2ncc(Br)c2n1 [Example 219, N-[(1H-benzimidazol-2-yl)methyl]-8-bromo-2-[(1S,4S)-5-methyl-2,5-diazabicyclo[2.2.1]heptan-2-yl]pyrazolo[1,5-a][1,3,5]triazin-4-amine]",> 20,> 20
"Fc1cccc2[nH]c(CNc3nc(N4CCOCC4)nc4c(C5CC5)cnn34)nc12 [Example 188, 8-cyclopropyl-N-[(4-fluoro-1H-benzimidazol-2-yl)methyl]-2-(morpholin-4-yl)pyrazolo[1,5-a][1,3,5]triazin-4-amine]",0.581,15
"OC1CCCN(c2nc(NCc3nc4ccccc4[nH]3)n3ncc(Br)c3n2)C1 (racemic) [Example 16, (rac)-1-(4-{[(1H-benzimidazol-2-yl)methyl]amino}-8-bromopyrazolo[1,5-a][1,3,5]triazin-2-yl)piperidin-3-ol]",6.94,1.5
"CN(CCO)c1nc(NCc2nc3ccccc3[nH]2)n2ncc(Br)c2n1 [Example 237, 2-[(4-{[(1H-benzimidazol-2-yl)methyl]amino}-8-bromopyrazolo[1,5-a][1,3,5]triazin-2-yl)(methyl)amino]ethan-1-ol]",7.35,4.94
